Measurements from US20100130620A1, “NOVEL USE OF HYDROXYTYROSOL AND OLIVE EXTRACTS/CONCENTRATES CONTAINING IT” (priority 2007, published 2010).

Assays:
[1] = test system: human ARPE-19 cells; type: cell-based
Method: (§1) The human ARPE-19 cells (a human retinal pigment epithelial cell-line) were maintained in DMEM-F12 medium (Dulbecco's modified Eagle's medium) supplemented with 10% fetal bovine serum, 0.348% sodium bicarbonate, 2 mM L-glutamine, 100 U/mL penicillin and 100 μg/ml streptomycin. Cell cultures were maintained at 37° C. in a humidified atmosphere of 95% air and 5% CO2. The medium was changed every 3 to 4 days. ARPE-19 cells were used within 10 generations.
(§2) All experiments were performed with an 80% confluence monolayer grown in 96-well plates or 6 well plates. Hydroxytyrosol (HTS) was dissolved in DMSO (dimethyl sulfoxide). Acrolein was dissolved in PBS (phosphate buffer salt) each time immediately before an experiment. For the acute toxicity study, cells were exposed to acrolein for 24 hours. The protective effects of HTS (Hydroxytyrosol) were studied with the acute toxicity model by pre-treating cells with HTS for 48 hours or for 7 days.
The MTT assay reduction assay was used as a […] index of cell viability. The optical densities were read at 555 nm using a microplate spectrophotometer (Spectra Max 340, Molecular Dabices, Sunnyvale, Calif.). Absorbance values were normalized with untreated cells to calculate the changes in cell viability.
The ARPE-19 cells were seeded at 4×10^4 per well in a 96 well plate. […]

[2] = test system: ARPE-19 cells; experiment: JC-1 assay for mitochondrial membrane potential; type: cell-based, human; details: 10-100 μM HTS, no acrolein
Method: as §1
as §2, with “The protective effects of HTS (Hydroxytyrosol) were studied with the acute toxicity model by pre-treating cells with HTS for 48 hours or for 7 days.” left out
Mitochondrial potential change (ΔΨ) was assessed in live APRE-19 cells using the lipophilic cationic probe 5,5′,6,6′-tetrachloro-1,1′,3,3′-tetraethylbenzimidazol-carbocyanine iodine (JC-1). For quantitative fluorescence measurement, cells were rinsed once after JC-1 staining and scanned with a multi-label counter (Wallac 1420; PerkinElmer Life Sciences, Wellesley, Mass.) at 485 nm excitation and 535 nm and 590 nm emission, to measure green and red JC-1 fluorescence respectively. […]

Question: Which “effect of HTS itself on cell viability” value ([1]; 10-100 μM HTS, ARPE-19, no acrolein, FIG. 1) does the source give for OCCc1ccc(O)c(O)c1 [HTS, 3,4-dihydroxyphenyl ethanol] here?
Answer: no apparent effect on cell viability

Question: And the “HTS concentration range protecting against acute acrolein-induced decrease in cell viability” value ([1]; pretreatment, 75 μM acrolein 24 hours)?
Answer: 10 to 20 µM

Question: And the “effect of HTS itself on mitochondrial membrane potential” value [2]?
Answer: no apparent effect on mitochondrial membrane potential
